What was measured:
P-gp = system: P-gp; set-up: method as in PMID 11212278; conditions: cited from earlier work
[1] = set-up: method as in PMID 18632828, PMID 21199574; conditions: 15 mg/kg tariquidar; up to 3 h after administration; cited from earlier work
[2] = Plasma protein binding by Centrifree ultrafiltration; format: in vitro ADME; conditions: male, Wistar WU, rat, plasma (from dosed rats and from spiked blank blood); linear; not affected by co-administration of tariquidar
Protocol: […]. […] All blood samples were temporarily stored in heparin (10 IU) coated Eppendorf cups. […]. The spiked blood samples were then incubated in a shaking water bath at 37 °C for 30 min.
Plasma protein binding was determined with Centrifree® ultrafiltration devices (Millipore BV, Etten-Leur, the Netherlands). All procedures were performed according to the user’s manual. The ultrafiltrate was diluted ten times with saline before the analysis.

pKa and ionization = format: physicochemical
From the text: Therefore, based on our data, it appears that quinidine is also transported by other transporters at the BBB and BCSFB, in the direction of the brain. However, there is no direct information in literature to support this. […] The question remains how this relates to the in vivo situation, like ours. […] OCTs have been localized both at the BBB [66], as well as at the BCSFB [67].

Na^+-K^+-ATPase = conditions: cited from earlier work

SMILES	half-maximum inhibition constant (IC50) for P-gp (P-gp)	plasma and brain concentrations relative to the IC50 value (fold higher) [1]	fraction unbound at 30 min [2]	% ionized (pKa and ionization; pH 7.3) [%]	% ionized (pKa and ionization; pH 7.4) [%]	reported IC50 for inhibition of Na+-K+-ATPase activity (Na^+-K^+-ATPase)
COc1cc2c(cc1OC)CN(CCc1ccc(NC(=O)c3cc(OC)c(OC)cc3NC(=O)c3cnc4ccccc4c3)cc1)CC2 [tariquidar, Tariquidar]	approximately 25 ng/ml	over 50 -fold	–	–	–	–
C=C[C@H]1C[N@@]2CC[C@H]1C[C@@H]2[C@@H](O)c1ccnc2ccc(OC)cc12 [quinidine, Quinidine]	–	–	0.135	80	76	~ 30 μg/ml

From publication PMC4269305, “The impact of P-gp functionality on non-steady state relationships between CSF and brain extracellular fluid” (Journal of Pharmacokinetics and Pharmacodynamics, 2013)
